The values below come from US12180192B2, “Modulators of THR-β and methods of use thereof” (ALIGOS THERAPEUTICS, INC., priority 2019, dated 2024).

One experiment has as its target T1, THR beta (Homo sapiens, UniProt P10828).
T1 construct: expressed in transfected cells; host or cells: HEK293T (ATCC CRL-3216)
T1 sequence (P10828 1-461): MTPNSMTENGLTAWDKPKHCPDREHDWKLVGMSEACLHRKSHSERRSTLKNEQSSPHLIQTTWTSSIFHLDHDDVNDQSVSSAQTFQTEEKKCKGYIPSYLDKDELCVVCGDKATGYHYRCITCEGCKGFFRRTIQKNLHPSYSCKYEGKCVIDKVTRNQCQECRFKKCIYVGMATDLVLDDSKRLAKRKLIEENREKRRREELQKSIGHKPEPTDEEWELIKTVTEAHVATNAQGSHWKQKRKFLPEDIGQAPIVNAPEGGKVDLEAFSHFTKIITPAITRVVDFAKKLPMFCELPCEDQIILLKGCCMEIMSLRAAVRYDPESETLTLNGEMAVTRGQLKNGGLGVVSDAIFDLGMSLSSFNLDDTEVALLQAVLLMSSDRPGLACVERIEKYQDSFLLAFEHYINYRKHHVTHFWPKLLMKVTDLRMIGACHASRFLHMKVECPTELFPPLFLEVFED
T1 sequence (P19793 1-462 partner): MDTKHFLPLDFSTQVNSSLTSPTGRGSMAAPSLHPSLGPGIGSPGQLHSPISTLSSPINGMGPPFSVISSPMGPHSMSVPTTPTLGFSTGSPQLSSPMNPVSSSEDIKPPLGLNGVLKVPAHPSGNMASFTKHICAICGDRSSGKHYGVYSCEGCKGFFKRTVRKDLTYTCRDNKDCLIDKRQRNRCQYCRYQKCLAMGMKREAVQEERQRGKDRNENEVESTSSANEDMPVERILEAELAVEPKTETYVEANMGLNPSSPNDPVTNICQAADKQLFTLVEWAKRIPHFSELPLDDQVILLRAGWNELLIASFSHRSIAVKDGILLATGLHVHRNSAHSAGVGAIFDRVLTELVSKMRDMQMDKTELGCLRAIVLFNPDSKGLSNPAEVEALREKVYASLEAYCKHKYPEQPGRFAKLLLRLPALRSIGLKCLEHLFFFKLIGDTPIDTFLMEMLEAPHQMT
The experiment can be described thus: HEK293T THR beta/RXR luciferase reporter assay (Assay 2). In kind it is cell-based. The note with it: for Emax: HEK-293T, Table 5, Assay 2, THRβ, read-out: Activity category Assay 2 THRβ (Emax); for EC50: THR-beta, HEK293T reporter assay, read-out: Activity category Assay 2 (EC50, THR-beta agonist). As to the method:
(§1) HEK293T Reporter THRalpha/Beta/RXR Reporter Assay (Assay 2)
(§2) The purpose of this assay is to evaluate the effect of compounds on the thyroid hormone nuclear receptor pathway in HEK293T cells. To this end, HEK293T cells are transiently transfected with a luciferase reporter under the control of the thyroid response element (TRE), an RXR expression plasmid and either a THR alpha or THR beta expression plasmid. Transfected cells are stimulated with test compounds for 18-24 hours before activation of the thyroid hormone pathway is measured via a luciferase read-out.
(§3) Procedure. […] Ten five-fold dilutions of test compounds are prepared in DMSO and 30 nL are dispensed to the cells. […] Approximately 18-24 h after compound addition, 384 well plates are allowed to adjust to rt, 30 μL One-Glo (Promega catalog #E6120) is added to each well and luminescence is measured on a Perkin Elmer Enspire plate reader. Percent agonism is calculated using the following equation: 100× (sample-negative control)/(positive control-negative control).

For experiment [1], the target named is T2, human thyroid receptor alpha ligand-binding domain (LBD) (Homo sapiens, UniProt P10827).
T2 construct: purchased Invitrogen
The experiment can be described thus: TR-FRET thyroid receptor alpha coactivator assay (THR biochemical assay, Assay 1). The note with it: for EC50: Table 4, THR-alpha, read-out: Activity category Assay 1 (EC50, THR-alpha agonist activity); for Emax: Table 5, THRα, read-out: Activity category Assay 1 THRα (Emax). The method, boiled down: (§4)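 GST-tagged human TRβ or TRα LBD, 1 nM final (stated for β), with fluorescein-SRC2-2 coactivator peptide (200 nM) and Tb-anti-GST antibody (2 nM). Agonists serially diluted, 1% DMSO final. 1 h incubation at rt in the dark; TR-FRET read as rise in fluorescein and drop in terbium emission.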

Experiment [2] addresses T3, human thyroid receptor beta ligand-binding domain (LBD) (Homo sapiens, UniProt P10828).
T3 construct: purchased Invitrogen
T3 sequence (P10828 217-461 limits assumed): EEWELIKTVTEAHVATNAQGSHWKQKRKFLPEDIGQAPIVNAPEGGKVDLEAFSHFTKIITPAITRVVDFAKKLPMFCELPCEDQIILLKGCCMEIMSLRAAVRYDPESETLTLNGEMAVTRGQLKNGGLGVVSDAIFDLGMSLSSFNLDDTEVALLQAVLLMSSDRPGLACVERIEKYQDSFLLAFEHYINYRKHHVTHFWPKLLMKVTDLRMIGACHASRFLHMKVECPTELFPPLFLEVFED
The experiment in a line: TR-FRET thyroid receptor beta coactivator assay (THR biochemical assay, Assay 1). To be noted: for EC50: THR-beta, TR-FRET coactivator assay, read-out: Activity category Assay 1 (EC50, THR-beta agonist); for Emax: Table 5, Assay 1, THRβ, read-out: Activity category Assay 1 THRβ (Emax). The method, boiled down:
as §4

A further experiment has as its target T4, THR alpha (Homo sapiens, UniProt P10827).
T4 construct: expressed in transfected cells; host or cells: HEK293T (ATCC CRL-3216)
T4 sequence (P10827 1-410 isoform P10827-2): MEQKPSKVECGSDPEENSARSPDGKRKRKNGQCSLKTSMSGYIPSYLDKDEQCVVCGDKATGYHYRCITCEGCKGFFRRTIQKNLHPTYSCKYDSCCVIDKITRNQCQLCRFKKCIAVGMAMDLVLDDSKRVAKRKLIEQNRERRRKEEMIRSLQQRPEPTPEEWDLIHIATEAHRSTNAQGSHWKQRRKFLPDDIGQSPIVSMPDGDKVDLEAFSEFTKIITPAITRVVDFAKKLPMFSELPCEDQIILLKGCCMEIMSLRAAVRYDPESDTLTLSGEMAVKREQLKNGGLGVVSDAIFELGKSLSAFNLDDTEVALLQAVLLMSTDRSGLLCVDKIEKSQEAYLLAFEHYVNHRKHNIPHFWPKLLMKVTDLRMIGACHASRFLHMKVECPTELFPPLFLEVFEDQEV
T4 sequence (P19793 1-462 partner): T1 sequence (P19793 1-462 partner)
The experiment can be described thus: HEK293T THR alpha/RXR luciferase reporter assay (Assay 2). The note with it: Assay 2; for Emax: HEK-293T, Table 5, THRα, read-out: Activity category Assay 2 THRα (Emax); for EC50: Table 4, THR-alpha, read-out: Activity category Assay 2 (EC50, THR-alpha agonist activity). The class given is cell-based. As to the method:
as §1, §2, §3

For the molecule `N#Cc1nn(-c2cc(Cl)c(Oc3ccc4[nH]cc(C#N)c4c3)c(Cl)c2)c(=O)[nH]c1=O` [Compound 17, 5-[2,6-dichloro-4-(6-cyano-3,5-dioxo-4H-1,2,4-triazin-2-yl)phenoxy]-1H-indole-3-carbonitrile], the Emax was greater than 75% on THR beta, less than 50% in experiment [1], less than 50% in experiment [2] and less than 50% on THR alpha. For the same molecule, the EC50 at THR beta is 1000 to 10000 nM; in experiment [1], greater than 25000 nM; in experiment [2], less than 50 nM; at THR alpha, greater than 10000 nM.
Consider `Cc1cc(-n2nc(C#N)c(=O)[nH]c2=O)cc(C)c1Oc1ccc2[nH]cc(C(C)C)c2c1` [Compound 2, 2-[4-[(3-isopropyl-1H-indol-5-yl)oxy]-3,5-dimethyl-phenyl]-3,5-dioxo-4H-1,2,4-triazine-6-carbonitrile], for which the Emax at THR beta is greater than 75%; in experiment [1], less than 50%; in experiment [2], greater than 75%; at THR alpha it was greater than 75%. The EC50 on THR beta was 50 to 250 nM; in experiment [1] it was less than 50 nM; in experiment [2], less than 50 nM; on THR alpha, 250 to 1000 nM.
For `CC(c1cc(Oc2c(Cl)cc(-n3nc(N)c(=O)[nH]c3=O)cc2Cl)n[nH]c1=O)C1CC(F)(F)C1` (stereo not shown) [Compound 61, 6-amino-2-[3,5-dichloro-4-([5-[1-(3,3-difluorocyclobutyl)ethyl]-6-oxo-1H-pyridazin-3-yl]oxy)phenyl]-4H-1,2,4-tri-azine-3,5-dione], the Emax is greater than 75% on THR beta, 50 to 75% in experiment [1], less than 50% in experiment [2] and greater than 75% at THR alpha. Besides, the concentration giving a half-maximal response (EC50) on THR beta is 50 to 250 nM; in experiment [1], 250 to 1000 nM; in experiment [2], less than 50 nM; at THR alpha, 250 to 1000 nM.
For `Nc1nn(-c2cc(Cl)c(Oc3cc([C@H]4C[C@H](O)C4)c(=O)[nH]n3)c(Cl)c2)c(=O)[nH]c1=O` [Compound 88-A, 6-Amino-2-[3,5-dichloro-4-([6-oxo-5-[(1r,3r)-3-hydroxycyclobutyl]-1H-pyridazin-3-yl]oxy)phenyl]-4H-1,2,4-triazine-3,5-dione], the Emax was less than 50% at THR beta, less than 50% in experiment [1], less than 50% in experiment [2] and greater than 75% at THR alpha. The EC50 at THR beta is greater than 10000 nM; in experiment [1], greater than 25000 nM; in experiment [2], 1000 to 25000 nM; on THR alpha, greater than 10000 nM.
`Nc1nn(-c2cc(Cl)c(Oc3cc(C4(c5ccccc5)CC4)c(=O)[nH]n3)c(Cl)c2)c(=O)[nH]c1=O` [Compound 107]: the Emax was 50 to 75% on THR beta, less than 50% in experiment [1], less than 50% in experiment [2] and less than 50% on THR alpha. Moreover, the EC50 is 50 to 250 nM at THR beta, 1000 to 25000 nM in experiment [1], less than 50 nM in experiment [2] and 250 to 1000 nM on THR alpha.
Take `Cc1cccc(-c2cc(Oc3c(Cl)cc(-n4ncc(=O)[nH]c4=O)cc3Cl)n[nH]c2=O)c1` [Compound 139]: the Emax is 50 to 75% on THR beta, less than 50% in experiment [1], less than 50% in experiment [2] and less than 50% at THR alpha. Further, the EC50 was less than 50 nM at THR beta, 50 to 250 nM in experiment [1], 50 to 250 nM in experiment [2] and 50 to 250 nM on THR alpha.
In the case of `Nc1nn(-c2cc(Cl)c(Oc3cc(-c4ccc5ncccc5c4)c(=O)[nH]n3)c(Cl)c2)c(=O)[nH]c1=O` [Compound 128], the Emax (on THR beta; in experiment [1]; in experiment [2]; at THR alpha) was less than 50% each time. In addition, the EC50 is greater than 10000 nM on THR beta, greater than 25000 nM in experiment [1], greater than 25000 nM in experiment [2] and greater than 10000 nM at THR alpha.
On to `Cc1cc(-n2nc(N)c(=O)[nH]c2=O)cc(C)c1Cc1ccc2[nH]c(=O)n(C(C)C)c2c1` [Compound 149, 6-amino-2-(4-((3-isopropyl-2-oxo-2,3-dihydro-1H-benzo[d]imidazol-5-yl)methyl)-3,5-dimethylphenyl)-1,2,4-triazine-3,5(2H,4H)-dione], for which the Emax on THR beta is greater than 75%; in experiment [1] it was less than 50%; in experiment [2], less than 50%; at THR alpha it was greater than 75%. Moreover, the EC50 (at THR beta; in experiment [1]; in experiment [2]; on THR alpha) was less than 50 nM each time.
On to `Nc1nn(-c2cc(Cl)c(Oc3cc(Cc4ccccc4)c(=O)[nH]n3)c(Cl)c2)c(=O)[nH]c1=O` [Compound 65, 6-amino-2-[4-[(5-benzyl-6-hydroxypyridazin-3-yl)oxy]-3,5-dichlorophenyl]-4H-1,2,4-triazine-3,5-dione], for which the Emax on THR beta was greater than 75%; in experiment [1], less than 50%; in experiment [2] it was less than 50%; on THR alpha it was less than 50%. For the same molecule, the EC50 at THR beta was 50 to 250 nM; in experiment [1], 250 to 1000 nM; in experiment [2], less than 50 nM; on THR alpha, 1000 to 10000 nM.
As to `N#Cc1nn(-c2cc(Cl)c(Oc3ccc4[nH]ccc4c3)c(Cl)c2)c(=O)[nH]c1=O` [Compound 47, 2-[3,5-dichloro-4-(1H-indol-5-yloxy)phenyl]-3,5-dioxo-4H-1,2,4-triazine-6-carbonitrile], the Emax is greater than 75% on THR beta, less than 50% in experiment [1], less than 50% in experiment [2] and greater than 75% on THR alpha. The 50% effective concentration (EC50) on THR beta is 1000 to 10000 nM; in experiment [1], less than 50 nM; in experiment [2], less than 50 nM; on THR alpha, 1000 to 10000 nM.
Turning to `CC(C)C1(C)C(=O)Nc2ccc(Oc3c(Cl)cc(-n4nc(N)c(=O)[nH]c4=O)cc3Cl)cc21` (stereo not shown) [Compound 84, 6-amino-2-[3,5-dichloro-4-[(3-isopropyl-3-methyl-2-oxo-1H-indol-5-yl)oxy]phenyl]-4H-1,2,4-triazine-3,5-dione], the Emax was greater than 75% at THR beta, 50 to 75% in experiment [1], less than 50% in experiment [2] and greater than 75% on THR alpha. The EC50 on THR beta was 50 to 250 nM; in experiment [1], less than 50 nM; in experiment [2], less than 50 nM; on THR alpha, 50 to 250 nM.
